From US6071747A, “Immortalized cell lines from human adipose tissue, process for preparing same and applications thereof” (Centre National de la Recherche Scientifique-CNRS, priority 1995, dated 2000)
Where two headings read alike, the source gives them in different places.

Assays:
[1] = test system: β-adrenergic receptors (I-CYP binding sites) of PAZ-6 cells
Protocol: * determination of the binding sites for the β antagonist ligand iodocyanopindolol (I-CYP) in the PAZ-6 cell line
The cells are washed with PBS, incubated for 5 minutes at 37° C. with a solution of trypsin/2% EDTA and resuspended in DMEM supplemented with 10% (v/v) of horse serum.
After centrifugation at 450×g for 5 minutes at 4° C., the cellular residue is washed twice with PBS and the cells are then resuspended in PBS.
The actual binding assay itself is carried out for 90 min at 25° C. in a final volume of […] of PBS supplemented with 50 mg/ml of bovine serum albumin and 1 mM desipramine.
The reaction is stopped by rapid filtration through a Whatman GF/C glass fibre filter previously immersed for 30 min in a solution of PBS containing 0.3% of polyethyleneimine (to reduce the non-specific bindings).
The protein concentrations are determined by the method of M. Bradford (Anal. Biochem., 1976, 72, 248-256).
Bovine serum albumin is used as the standard and the cellular suspensions are homogenized with a Polytron homogenizer for a maximum of 5 seconds before the reaction.

[2] = test system: β-adrenergic receptors coupled with adenylyl cyclase in PAZ-6 cells; settings: for Accumulation of cAMP, pmol cAMP/mg protein: agonist 15 min at 37° C.
Protocol: (§1) The following method is used to determine the intracellular levels of cAMP:
(§2) The incubation buffer is removed and the cells are lyzed in 1 M NaOH for at least 20 min at 37° C. The lyzate is neutralized with 1 M acetic acid and centrifuged in a microcentrifuge at maximum speed for 5 min.
(§3) The supernatant is used to determine the cAMP (cAMP-^3 H kit, Amersham).

[3] = test system: PAZ-6 preadipocytes; assay: Differentiation of PAZ-6 preadipocytes into mature adipocytes; type: cell-based, human; settings: in the presence of insulin and dexamethasone; 1 μM pioglitazone
Protocol: The cells are inoculated at a density of 10,000 cells/cm^2 and cultivated for 3 days in a medium containing 6% of foetal calf serum in order to obtain confluence; an ITT medium (DMEM/HAM F12 medium supplemented with biotin, pantothenate, Hepes, T3, penicillin and streptomycin, as defined above) is then added to said cells, said medium also containing 0.1 μM dexamethasone, 850 nM insulin, 1 μM pioglitazone and 0.25 mM IBMX (3-isobutyl-1-methylxanthine) for 4 days.

[4] = test system: differentiated PAZ-6 human adipocytes; assay: Lipolysis assay (glycerol release) on the PAZ-6 line; type: cell-based; settings: differentiated PAZ-6 adipocytes; 2 hours at 37° C.; forskolin 10^-4 M, other agonists 10^-5 M; catecholamines with or without phentolamine 20 μg/ml
Protocol: The lipolysis test consists in measuring the amount of glycerol generated by the mature adipocytes treated with lipolytic ligands.
Monolayers of (differentiated) mature adipocytes in culture plates (6 wells) are washed and preincubated overnight in DMEM/Ham's F12 (1:1, v/v) comprising 1% of fatty acid-free BSA. The cells are then incubated in a Krebs-Ringer phosphate buffer (pH 7.4) comprising 2% of fatty acid-free BSA, 4.5 g/l of glucose, 50 μg/ml of Na2 S2 O5 and the β-adrenergic ligands, in a volume of 500 μl, for 2 hours at 37° C.
The glycerol level is measured on 100 μl of incubation medium by following the reduction of NAD to NADH at 340 nm in the presence of 10 μg/ml of glycerol dehydrogenase (derived from Enterobacter aerogenes, Boehringer Mannheim) in the following reaction buffer: K2 CO3 /NaHCO3 125 mM pH 10, NAD 3.5 mM and (NH4)2 SO4 330 mM.

[5] = target: β-adrenergic receptors coupled with adenylyl cyclase in PAZ-6 cells (Homo sapiens, UniProt P13945); settings: differentiated PAZ-6; 15 min
Protocol: as §1, §2, §3

[6] = test system: mRNA coding for the Ob protein; settings: rat adipocytes; cited from earlier work
[7] = test system: Ob mice; settings: Ob mice with mutant gene; injected; cited from earlier work

β-adrenergic receptors coupled with adenylyl cyclase in PAZ-6 cells (Homo sapiens, UniProt P13945), sequence (P13945 whole entry): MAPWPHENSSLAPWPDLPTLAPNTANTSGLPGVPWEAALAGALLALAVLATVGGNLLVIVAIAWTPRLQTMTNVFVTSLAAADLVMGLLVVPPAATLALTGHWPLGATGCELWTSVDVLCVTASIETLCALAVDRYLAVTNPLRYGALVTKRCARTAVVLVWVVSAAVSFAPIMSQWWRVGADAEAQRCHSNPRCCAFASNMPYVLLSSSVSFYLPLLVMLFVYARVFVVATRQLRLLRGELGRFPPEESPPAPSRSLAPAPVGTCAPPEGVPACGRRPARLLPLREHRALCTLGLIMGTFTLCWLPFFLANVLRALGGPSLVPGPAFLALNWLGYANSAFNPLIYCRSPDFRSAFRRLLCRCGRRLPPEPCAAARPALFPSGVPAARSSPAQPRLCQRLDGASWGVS

In the case of Cc1ccc(OCC(O)C(C)NC(C)C)c2c1CCC2 (stereo not shown) [ICI 118551], the “reduction of the number of I-CYP binding sites” value [1] is reported as 34%.
For CC(C)NCC(O)c1ccc(O)c(O)c1 (stereo not shown) [isoproterenol, isoprenaline], the “Accumulation of cAMP, pmol cAMP/mg protein” value (“Accumulation of cAMP” for short) ([2]; PAZ-6 differentiated) was 2083 pmol cAMP/mg protein and the “Accumulation of cAMP” value ([2]; PAZ-6 not differentiated) was 4344 pmol cAMP/mg protein.
With CCc1ccc(CCOc2ccc(CC3SC(=O)NC3=O)cc2)nc1 (stereo not shown) [pioglitazone] the “differentiation into mature adipocytes” value [3] was “significantly increased”.
In the case of NC[C@H](O)c1ccc(O)c(O)c1 [norepinephrine], the “lipolysis (glycerol generated relative to basal level, FIG. 4)” value [4] is reported as “lipolysis induced”.
With CC(C)(C)NCC(O)COc1cccc2[nH]c(=O)[nH]c12 (stereo not shown) [CGP 12177A] the “lipolysis (glycerol generated relative to basal level, FIG. 4)” value [4] was “Lipolysis is also seen to be induced”, the “stimulation (cAMP) compared with isoproterenol activating all β-AR sites” value [5] was 20% and the “Accumulation of cAMP” value ([2]; PAZ-6 differentiated) was 323 ± 129 pmol cAMP/mg protein. The “Accumulation of cAMP” value ([2]; PAZ-6 not differentiated) was 254 ± 167 pmol cAMP/mg protein and the “stimulation of the adenylyl cyclase” value ([2]; undifferentiated PAZ-6) was “does not cause any significant stimulation”.
With O=C(O)COc1ccc(OCCNCC(O)COc2ccccc2)cc1 (stereo not shown) [ICI 201651] the “lipolysis (glycerol generated relative to basal level, FIG. 4)” value [4] was “Lipolysis is also seen to be induced”.
For CNC[C@H](O)c1ccc(O)c(O)c1 [epinephrine], the “lipolysis (glycerol generated relative to basal level, FIG. 4)” value [4] was “lipolysis induced”.
For C[C@H](Cc1ccc2c(c1)OC(C(=O)O)(C(=O)O)O2)NC[C@H](O)c1cccc(Cl)c1 [CL 316,43], the “lipolysis (glycerol generated relative to basal level, FIG. 4)” value [4] is listed as “Lipolysis is also seen to be induced” and the “levels of mRNA coding for the Ob protein” value [6] is listed as “reduce substantially”.
In the case of C=C[C@@]1(C)CC(=O)[C@]2(O)[C@@]3(C)[C@@H](O)CCC(C)(C)[C@@H]3[C@H](O)[C@H](OC(C)=O)[C@@]2(C)O1 [forskolin], the “lipolysis (glycerol generated relative to basal level, FIG. 4)” value [4] is reported as “lipolysis induced”.
For “leptin: leptin (Ob protein), product of the Ob gene”, the appetite and obesity [7] is listed as “reduces appetite and hence obesity”.
